Results published in US10239933B2, “Compositions and methods for modulating thrombin generation” (The Children's Hospital of Philadelphia, priority 2011, dated 2019).
Where two headings read alike, the source gives them in different places. Ends that are not written are not given here.

What was measured:
rFVa = target: T1, rFVa (Homo sapiens, UniProt P12259); test: Clotting assay, FV-deficient plasma supplemented with rFVa; type: biochemical; details: FIG. 8B: 0.25 nM rFVa, peptides at 5 μM, listed as BR peptide
T1 construct: thrombin rapidly cleaves Factor V at Arg709 to produce heavy chain (HC); rapidly cleaves at Arg1018 and Arg1545 to produce light chain (LC); made in house
T1 sequence (P12259 29-737 limits assumed): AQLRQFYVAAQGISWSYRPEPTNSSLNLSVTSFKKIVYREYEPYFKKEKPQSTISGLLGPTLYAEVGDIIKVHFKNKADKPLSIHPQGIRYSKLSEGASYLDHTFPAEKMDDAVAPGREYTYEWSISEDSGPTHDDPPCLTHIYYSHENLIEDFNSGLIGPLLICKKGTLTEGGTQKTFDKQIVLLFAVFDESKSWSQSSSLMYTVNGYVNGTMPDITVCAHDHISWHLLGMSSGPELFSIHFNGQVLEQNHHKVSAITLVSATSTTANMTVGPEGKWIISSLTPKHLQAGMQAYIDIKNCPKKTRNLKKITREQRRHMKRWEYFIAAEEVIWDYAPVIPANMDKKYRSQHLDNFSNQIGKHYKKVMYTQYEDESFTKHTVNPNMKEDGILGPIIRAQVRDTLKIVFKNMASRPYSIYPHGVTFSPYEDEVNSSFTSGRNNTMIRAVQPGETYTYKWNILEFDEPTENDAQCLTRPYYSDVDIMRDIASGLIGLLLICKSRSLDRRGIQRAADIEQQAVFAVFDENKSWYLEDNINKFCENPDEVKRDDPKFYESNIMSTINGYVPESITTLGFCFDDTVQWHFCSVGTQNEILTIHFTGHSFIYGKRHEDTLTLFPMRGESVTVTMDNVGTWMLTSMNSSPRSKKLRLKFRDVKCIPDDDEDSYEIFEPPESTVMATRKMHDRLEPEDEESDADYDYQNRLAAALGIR
T1 sequence (P12259 1574-2224 limits assumed): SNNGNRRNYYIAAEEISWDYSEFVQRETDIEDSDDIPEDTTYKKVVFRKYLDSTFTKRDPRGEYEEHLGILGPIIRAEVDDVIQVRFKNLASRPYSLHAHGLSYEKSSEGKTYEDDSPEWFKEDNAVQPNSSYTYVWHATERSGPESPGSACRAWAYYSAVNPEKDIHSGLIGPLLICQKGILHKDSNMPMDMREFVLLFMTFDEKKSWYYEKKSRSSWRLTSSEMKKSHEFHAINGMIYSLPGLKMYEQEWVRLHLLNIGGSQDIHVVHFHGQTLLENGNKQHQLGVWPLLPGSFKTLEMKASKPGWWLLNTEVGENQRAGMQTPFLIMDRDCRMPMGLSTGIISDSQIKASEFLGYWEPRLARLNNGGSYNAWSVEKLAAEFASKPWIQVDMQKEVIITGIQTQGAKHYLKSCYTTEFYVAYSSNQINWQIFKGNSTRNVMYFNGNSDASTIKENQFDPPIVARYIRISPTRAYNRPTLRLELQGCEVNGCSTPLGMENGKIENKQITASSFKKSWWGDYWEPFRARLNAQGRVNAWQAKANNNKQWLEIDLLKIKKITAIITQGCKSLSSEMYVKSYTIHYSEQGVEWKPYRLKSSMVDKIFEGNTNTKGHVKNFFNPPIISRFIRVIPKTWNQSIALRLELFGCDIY
Experimental: (§1) Residual clotting activity of Factor V variants was determined by prothrombin time-based clotting assays. Factor V variants were incubated with either the FVBR or s46 peptide, after which the mixtures were mixed with Factor V deficient plasma and clotting times were measured. Where indicated, the Factor V variants were activated by pre-incubation with thrombin prior to addition of the peptides.
(§2) FV derivatives (500 nM) were prepared in assay buffer. Where noted, FV derivatives were pretreated with 10 nM thrombin for 15 minutes at 37° C., followed by the addition of 15 nM hirudin. Samples were diluted to 0.25 nM in assay buffer with 0.1% BSA, and the specific clotting activity was measured in FV-deficient plasma (George King Bio-Medical, Overland Park, Kans.) with TriniCLOT PT Excel (Tcoag, Wicklow, Ireland) as described (Camire et al. (1998) Biochemistry 37:11896-11906). The data are presented as the means±S.D.

FV-810^R1545Q = target: T2, FV-810^R1545Q (Homo sapiens, UniProt P12259, DEL839-1519/R1573Q); test: Clotting assay with FV-810^R1545Q; type: biochemical
T2 construct: amino acids 1-28 are a signal peptide that is cleaved and numbering begins at residue 29; made in house
T2 sequence (P12259 with tags, fused parts or gaps DEL839-1519/R1573Q): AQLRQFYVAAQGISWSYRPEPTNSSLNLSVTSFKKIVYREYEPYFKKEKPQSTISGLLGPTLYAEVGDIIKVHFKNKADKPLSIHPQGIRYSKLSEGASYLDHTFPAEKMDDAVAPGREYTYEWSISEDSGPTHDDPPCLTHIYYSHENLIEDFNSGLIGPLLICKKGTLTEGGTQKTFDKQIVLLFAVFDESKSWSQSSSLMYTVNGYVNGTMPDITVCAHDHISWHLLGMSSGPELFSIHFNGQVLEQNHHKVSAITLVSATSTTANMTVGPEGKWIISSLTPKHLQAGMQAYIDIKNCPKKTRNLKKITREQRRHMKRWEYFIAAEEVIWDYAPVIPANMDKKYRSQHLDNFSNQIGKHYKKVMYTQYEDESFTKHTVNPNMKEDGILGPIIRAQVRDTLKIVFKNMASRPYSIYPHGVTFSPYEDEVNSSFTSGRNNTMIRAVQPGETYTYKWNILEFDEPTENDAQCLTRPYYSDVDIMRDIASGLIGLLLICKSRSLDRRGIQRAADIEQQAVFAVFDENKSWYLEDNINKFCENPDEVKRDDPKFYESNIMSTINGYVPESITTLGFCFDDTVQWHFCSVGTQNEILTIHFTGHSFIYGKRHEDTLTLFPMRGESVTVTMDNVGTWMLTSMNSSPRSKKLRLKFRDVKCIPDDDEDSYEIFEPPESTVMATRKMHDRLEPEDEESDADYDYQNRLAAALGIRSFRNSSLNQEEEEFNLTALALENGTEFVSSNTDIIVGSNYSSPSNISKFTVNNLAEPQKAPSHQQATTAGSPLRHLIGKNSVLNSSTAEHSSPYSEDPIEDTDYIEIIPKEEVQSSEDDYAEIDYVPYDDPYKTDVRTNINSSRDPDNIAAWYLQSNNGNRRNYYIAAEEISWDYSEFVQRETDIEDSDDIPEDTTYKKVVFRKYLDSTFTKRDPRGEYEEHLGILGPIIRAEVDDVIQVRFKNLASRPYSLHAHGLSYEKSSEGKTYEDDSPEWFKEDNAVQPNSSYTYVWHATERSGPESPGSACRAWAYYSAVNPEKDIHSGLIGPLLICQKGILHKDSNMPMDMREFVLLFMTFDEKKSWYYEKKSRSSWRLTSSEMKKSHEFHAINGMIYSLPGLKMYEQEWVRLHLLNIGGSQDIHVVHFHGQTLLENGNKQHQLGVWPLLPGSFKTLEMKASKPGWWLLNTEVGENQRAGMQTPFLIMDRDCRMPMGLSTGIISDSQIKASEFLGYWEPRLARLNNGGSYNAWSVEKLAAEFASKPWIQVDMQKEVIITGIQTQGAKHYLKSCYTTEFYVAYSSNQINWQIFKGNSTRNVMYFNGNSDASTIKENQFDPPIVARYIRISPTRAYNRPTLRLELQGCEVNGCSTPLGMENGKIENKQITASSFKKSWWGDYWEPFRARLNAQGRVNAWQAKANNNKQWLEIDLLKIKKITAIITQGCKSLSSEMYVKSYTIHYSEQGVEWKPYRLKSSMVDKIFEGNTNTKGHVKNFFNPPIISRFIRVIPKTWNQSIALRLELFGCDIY
Experimental: as §1, §2

FXa/FVa [1] = target: T3, FXa/FVa (Homo sapiens, UniProt P12259); test: Prothrombin activation assay, FXa/FVa; type: biochemical
T3 construct: thrombin rapidly cleaves Factor V at Arg709 to produce heavy chain (HC); rapidly cleaves at Arg1018 and Arg1545 to produce light chain (LC); made in house
T3 sequence (P12259 29-737 limits assumed): T1 sequence (P12259 29-737 limits assumed)
T3 sequence (P12259 1574-2224 limits assumed): T1 sequence (P12259 1574-2224 limits assumed)
Experimental: Steady-state initial velocities of prothrombin cleavage were determined discontinuously at 25° C. by measuring the initial rate of thrombin formation. Reaction mixtures contained liposomes (75:25, PC:PS), prothrombin, the indicated Factor V variants, and the Factor V peptides FVBR or s46. The reactions were initiated by adding Factor Xa, and thrombin generation was determined at multiple time points by monitoring the cleavage of the chromogenic thrombin substrate S-2238.
Steady-state initial velocities of prothrombin cleavage were determined discontinuously at 25° C. as described (Camire, R. M. (2002) J. Biol. Chem., 277:37863-37870). Reaction mixtures containing PCPS (50 μM), DAPA (3 μM), prothrombin (1.4 μM), and either rFVa or the indicated FV-810 derivatives were incubated with B-domain peptides (0-10 μM) in assay buffer. […] Prothrombin activation was determined using the chromogenic thrombin substrate 52238 as described (Camire, R. M. (2002) J. Biol. Chem., 277:37863-37870).

FV-810 = target: T4, FV-810 (Homo sapiens, UniProt P12259, DEL839-1519); test: Prethrombin-2 activation, competition of BR and FXa for FV-810; type: biochemical; details: read-out: Kd for FV-810 from prethrombin-2 activation, model for tight binding
T4 construct: amino acids 1-28 are a signal peptide that is cleaved and numbering begins at residue 29; made in house
T4 sequence (P12259 with tags, fused parts or gaps DEL839-1519): as the sequence (P12259 with tags, fused parts or gaps DEL839-1519/R1573Q) above, with Q864R counted along it

FXa/FVa [2] = target: T3, FXa/FVa; test: Binding of fluorescently labeled FXa to rFVa on liposomes (anisotropy); details: on PCPS liposomes

“SRAWGESTPLANKPGKQSGHPKFPRVRHKSLQVRQDGGKSRLKKSQFLIKTRKKKKEK [FVBR]” was tested, and the “inhibition of clotting activity of rFVa/FVa” value (rFVa) was “no inhibitory effect”, the “inhibition of FV-810^R1545Q” value (FV-810^R1545Q; following incubation with thrombin) was “still inhibited” and the “inhibition of FV-810^R1545Q” value (FV-810^R1545Q; prior to thrombin cleavage) was “potently inhibited”. The “effect on prothrombin activation by FXa/FVa” value (FXa/FVa [1]) was “did not affect”, the “effect on prothrombin activation by FXa/FVa” value (FXa/FVa [1]; listed as BR peptide) was “no inhibitory effect” and the Kd (FV-810) was 0.0342 ± 0.0036 µM. The “disruption of FXa binding to FVa” value (FXa/FVa [2]) was “not FVa”.
